From patent US20220289791A1, “LACTATE DEHYDROGENASE INHIBITOR POLYPEPTIDES FOR USE IN THE TREATMENT OF CANCER” (UNIVERSITÉ CATHOLIQUE DE LOUVAIN, priority 2019, published 2022)
*1 amine or outer side, *2 acyl side, *3 side chain or, on linkers, in order; H or OH if unused. Where a SMILES comes first, the peptide text is derived from it. Bridges are numbered along the chain shown (N, C = ends). mXylylene = c1cc(C[*:1])cc(C[*:2])c1

Experiments:
LDHBtr [1] = molecular target: T1, LDHBtr (Homo sapiens, UniProt P07195); assay: NMR WaterLOGSY binding screening
Description: All experiments were acquired on a Bruker Ascend Avance III 600 MHz equipped with a broadband cryoprobe (Bruker® GmBH, Germany)
(§1) NMR WaterLOGSY was performed on samples prepared in 10% D2O buffer containing 50 mM sodium phosphate buffer, pH 7.6 and 100 mM NaCl. The concentration of LDH subunits was 15-20 μM. Ligand binding was detected using a NMR WaterLOGSY ephogsygpno.2 advance-version sequence with a […]. Water signal suppression was achieved using excitation sculpting scheme and a 50 ms spinlock was used to suppress protein background signal. For each experiment, 512 scans were collected to yield a 16K points FID. NMR WaterLOGSY intensity was corrected by plotting the intensity difference of the ligand NMR WaterLOGSY spectra recorded in the presence and absence of protein.
For NMR WaterLOGSY screening experiments a correction factor was applied to account for slight concentration variation between samples. To do so, 8 scans 1H NMR spectra with 50 ms spinlock were recorded before NMR WaterLOGSY experiments. The intensity ratio of the aliphatic region (0.700 ppm to 0.955 ppm) with and without protein was used as a correction factor to compare the NMR WaterLOGSY intensity of the polypeptides of interest with and without LDH subunits. An arbitrary threshold of 0.1, corresponding to a 10% decrease in the NMR WaterLOGSY signal intensity between the spectra with and without protein, was set to discriminate between binders and non-binders.

LDHBtr [2] = molecular target: T1, LDHBtr; assay: Microscale thermophoresis (MST), Example 1; type: binding
Description: (§2) MST measurements were performed on a Nanotemper Monolith NT.115 instrument (Nanotemper Technologies®, GmbH) using Red-dye-NHS fluorescent labeling. Each LDH (WT or truncated) sample, purified to homogeneity, was labeled with the Monolith RED-NHS 2nd generation labeling dye according to the supplied protocol (Nanotemper Technologies®, GmbH). Measurements were performed in 50 mM Na-Phosphate pH 7.6 and 100 mM NaCl containing 0.05% Tween-20 in premium treated capillaries (Nanotemper Technologies®, GmbH). The final concentrations of either labeled protein in the assay were 100 nM. The ligands (NADH and peptides) were titrated in 1:1 dilutions following manufacturer's recommendations. All binding reactions were incubated 5′ at room temperature after loading into capillaries. Experiments were performed in triplicates using 40% LED power and medium MST power, LaserOn time was 20 sec, Laser Off time 3 sec. Linear octapeptides were evaluated for their thermophoretic pattern.

rabbit LDHA (LDH-M) = molecular target: T2, rabbit LDHA (LDH-M) (Oryctolagus cuniculus, UniProt P13491); assay: Intrinsic fluorescence assay: recovery of tryptophan fluorescence after acidic dissociation, Example 1; type: biochemical; conditions: pre-dissociation at pH 5.0, neutralization; LT018 50 μM, LB8 up to 100 μM
T2 construct: purchased Sigma-Aldrich
Description: Following described procedure; rabbit LDHA commercial solution in an ammonium sulfate suspension in (pH-7.0, 3.2 M) was first diluted to 1 mg/ml in a solution of NaCl 200 mM and then dialyzed at 4° C. 2×2 h against 200 mM NaCl. The stock solution of 1 mg/ml was then diluted to 30 μg/ml in NaCl 200 mM to give the assay solution.
Assay solution was mixed 1:1 with either an acetate-chloride buffer (20 mM Acetic acid/Acetate, 180 mM NaCl, pH 5.0) or phosphate buffer (250 mM phosphate pH 7.6). After storage at 4° C. for 30′, samples were removed and diluted 1:1,250 mM phosphate buffer (pH 7.6) to yield a 7.5 μg/ml final concentration of re-associating LDH-M.
Samples of the resulting solutions were then subjected to kinetic experiments of the recovery of intrinsic fluorescence (Exc=286 nm, Em=350 nm, 10′, rt). Full tryptophan fluorescence spectra were afterward recorded (Exc=286 nm, Em=320-400 nm, rt).
To confirm this hypothesis, experiments were therefore designed to follow the recovery of the LDH tetrameric form after a pre-dissociation initiated in slightly acidic conditions. Briefly, six tryptophan residues are found in the LDH structure, three of them being located at the dimer-dimer interface. As the tryptophan quantum yield decreases in polar environment, dimeric LDHs show very weak tryptophan fluorescence compared to tetrameric one. […] The recovery of fluorescence upon pH neutralization is therefore a direct measure of the tetramer re-association.

rabbit LDH5 (rLDH5) = molecular target: T3, rabbit LDH5 (rLDH5) (Oryctolagus cuniculus, UniProt P13491); assay: Denaturation assay: rLDH5 fluorescence recovery after acidic exposure; type: biochemical; conditions: 200 nM rLDH5, 50 μM peptide, pH 5 then neutral pH
T3 construct: purchased Sigma-Aldrich
Description: Rabbit LDHA commercial solution (Sigma-Aldrich®) in an ammonium sulfate suspension (pH-7, 3.2 M) was first diluted to 1 mg/ml in a solution of NaCl 200 mM and then dialyzed at 4° C. 2×2 h against 200 mM NaCl. The stock solution of 1 mg/ml was then diluted to 30 μg/ml (800 nM) in NaCl 20 0 mM to give the assay solution. Assay solution was mixed 1:1 with acetate-chloride buffer (20 mM Acetic acid/Acetate, 180 mM NaCl, 1 mM DTT pH 5) and stored on ice for 30 minutes. Samples were then removed from ice and let warm up for 2 minutes. The acidic solution was then diluted 1:1 with a 250 mM phosphate buffer (pH 7.6) containing or not the inhibitory peptide to yield a 7.5 μg/ml (200 nM) final concentration of re-associating LDHA. Samples of the resulting solutions were then subjected to kinetic experiments of the recovery of intrinsic fluorescence (Exc=286 nm, Em=350 nm, 10′, rt).
An experiment was thus designed to follow the recovery of LDH tetramers after a dissociation step initiated by acidic conditions. […] Monitoring of the rLDH5 tetrameric state was performed by following its intrinsic tryptophan fluorescence: 6 tryptophan residues can be found in each rLDHA monomer, three of them being located at the dimer-dimer interface. As the tryptophan quantum yield decreases in a polar environment, dimeric LDHs show very weak tryptophan fluorescence compared to the tetrameric form. […] Such decay can be compared to the difference in tryptophan fluorescence between tetrameric LDH1 and dimeric LDHBtr.

full length LDH1 enzyme = full length LDH1 enzyme (Homo sapiens, UniProt P07195); assay: Biochemical/biophysical evaluation of interaction with full length tetrameric LDHB; type: binding
Description: as §1
as §2, with “The ligands (NADH and peptides) were titrated in 1:1 dilutions following manufacturer's recommendations. All binding reactions were incubated 5′ at room temperature after loading into capillaries. Experiments were performed in triplicates using 40% LED power and medium MST power, LaserOn time was 20 sec, Laser Off time 3 sec.” left out

tetrameric LDH1 = tetrameric LDH1 (Homo sapiens, UniProt P07195); assay: Microscale thermophoresis (MST) on tetrameric LDH1; type: binding
Description: (§3) MST measurements were performed on a Nanotemper Monolith NT.115 instrument (NanoTemper Technologies®) using Red-dye-NHS fluorescent labeling. Each LDH sample, purified to homogeneity, was labeled with the Monolith Red-dye-NHS 2nd generation labeling dye (NanoTemper Technologies®), according to the manufacturer's instructions. Measurements were performed in 50 mM sodium phosphate, pH 7.6, and 100 mM NaCl containing 0.05% Tween-20 in premium-treated capillaries (NanoTemper Technologies®). The final concentrations of either labeled protein in the assay were 100 nM. The ligands (NADH and peptides) were titrated in 1:1 dilutions following manufacturer's recommendations. All binding reactions were incubated for 5 min at room temperature after loading into capillaries. Experiments were performed in triplicates using 40% LED power, medium MST power, Laser On time 20 s and Laser Off time 3 s. Peptides were evaluated for their thermophoretic pattern, and Kd's were extracted from raw data at a 10 to 20 s MST on time according to manufacturer's instructions. Regarding interaction of 7 with LDH5, Kd was extracted from the raw fluorescence. A denaturation test was performed accordingly to manufacturer recommendation and excluded any nonspecific spectral interaction between 7 and the red-dye. […]

tetrameric LDH5 = molecular target: T4, tetrameric LDH5 (Homo sapiens, UniProt P00338); assay: Microscale thermophoresis (MST) on tetrameric LDH5; type: binding
T4 construct: purchased Abnova
Description: as §3

human LDH1 = human LDH1 (Homo sapiens, UniProt P07195); assay: nanoDSF thermal denaturation of LDH1; type: binding; conditions: nanoDSF
human LDH5 = molecular target: T5, human LDH5 (Homo sapiens, UniProt P00338); assay: nanoDSF thermal denaturation of LDH5; type: binding; conditions: nanoDSF
T5 construct: purchased Abnova

[3] = linear peptides at 800 μM, LDHBtr 15 μM

T1 sequence (P07195 21-334): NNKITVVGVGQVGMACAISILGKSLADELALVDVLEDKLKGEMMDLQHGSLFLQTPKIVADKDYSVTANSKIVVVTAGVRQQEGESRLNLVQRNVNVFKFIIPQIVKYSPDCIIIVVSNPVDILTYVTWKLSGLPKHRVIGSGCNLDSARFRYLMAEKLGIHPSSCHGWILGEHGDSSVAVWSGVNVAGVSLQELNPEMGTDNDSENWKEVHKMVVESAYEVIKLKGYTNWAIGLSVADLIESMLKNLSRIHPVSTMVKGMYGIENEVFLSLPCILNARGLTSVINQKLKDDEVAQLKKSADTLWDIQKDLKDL
Sequence of full length LDH1 enzyme (P07195 whole entry): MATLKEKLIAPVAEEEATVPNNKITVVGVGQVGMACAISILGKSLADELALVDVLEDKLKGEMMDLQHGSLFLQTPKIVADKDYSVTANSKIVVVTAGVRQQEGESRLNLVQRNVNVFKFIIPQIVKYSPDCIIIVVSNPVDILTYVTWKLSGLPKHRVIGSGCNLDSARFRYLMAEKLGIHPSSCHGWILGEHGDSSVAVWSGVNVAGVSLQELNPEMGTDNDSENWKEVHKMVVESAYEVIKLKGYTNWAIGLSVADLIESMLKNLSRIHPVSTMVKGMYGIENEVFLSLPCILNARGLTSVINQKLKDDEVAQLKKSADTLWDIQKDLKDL
Sequence of human LDH1 (P07195 whole entry): as above
Sequence of tetrameric LDH1 (P07195 whole entry): as above

| Molecule | Binding using WaterLOGSY (800 μM) (LDHBtr [1]; [3]) | Kd (LDHBtr [2]; linear peptides, read-out: Kd using MST experiment) [µM] | recovery of fluorescence intensity after denaturation (LDH re-association) (rabbit LDHA (LDH-M)) | LDH5 fluorescence recovery after acidification (rabbit LDH5 (rLDH5)) | NMR WaterLOGSY signal / saturation transfer (LDHBtr [1]) | Interaction with full length LDH1 / competition with LDHB native arm (full length LDH1 enzyme) | Binding using WaterLOGSY (800 μM) (LDHBtr [1]; cyclic peptides at 800 μM) | increase in potency compared to LB8 (LDHBtr [2]; Kd by MST) [fold] | binding to tetrameric LDH1 (tetrameric LDH1) | binding to tetrameric LDH5 (tetrameric LDH5) | effect on LDH1 stability (human LDH1) | effect on LDH5 stability (human LDH5) |
| --- | --- | --- | --- | --- | --- | --- | --- | --- | --- | --- | --- | --- |
| CC[C@H](C)[C@H](NC(=O)[C@H](CC(C)C)NC(=O)[C@H](CCCCN)NC(=O)[C@H](CCC(=O)O)NC(=O)[C@H](CCCCN)NC(=O)[C@H](CC(C)C)NC(=O)[C@@H](NC(=O)[C@H](C)N)[C@@H](C)O)C(N)=O [LB8, ATLKEKLI] (H-ATLKEKLI-NH2; N-terminus assumed) | + (binders) | 1400 | no effects up to 100 μM | no effect |  |  |  |  |  |  |  |  |
| CC[C@H](C)[C@H](NC(=O)[C@H](CC(C)C)NC(=O)[C@H](CCCCN)NC(=O)[C@H](CCC(=O)O)NC(=O)[C@H](CCCCN)NC(=O)[C@H](CC(C)C)NC(=O)[C@@H](NC(=O)[C@H](C)N)[C@@H](C)O)C(=O)N[C@@H](C)C(=O)N1CCC[C@H]1C(=O)N[C@H](C(=O)N[C@@H](C)C(=O)N[C@@H](CCC(=O)O)C(=O)N[C@@H](CCC(=O)O)C(=O)N[C@@H](CCC(=O)O)C(=O)N[C@@H](C)C(=O)N[C@H](C(=O)N[C@H](C(=O)N1CCC[C@H]1C(N)=O)C(C)C)[C@@H](C)O)C(C)C [LB19, ATLKEKLIAPVAEEEATVP] (H-ATLKEKLIAPVAEEEATVP-NH2; N-terminus assumed) | + (binders) |  |  |  | positive signal | no interaction |  |  |  |  |  |  |
| CC[C@H](C)[C@H](NC(=O)[C@H](CC(C)C)NC(=O)[C@H](CCCCN)NC(=O)[C@@H]1CSCc2cccc(c2)CSC[C@H](N)C(=O)N[C@@H]([C@@H](C)O)C(=O)N[C@@H](CC(C)C)C(=O)N[C@@H](CCCCN)C(=O)N1)C(N)=O [LT018, CTLKCKLI] (H-CTLKCKLI-NH2; linker 1-5 via mXylylene; N-terminus assumed) |  |  | nicely interfered with the fluorescence recovery at 50 μM |  | intense saturation transfer | not able to compete with LDHB native arm | + (binders) | 30 |  |  |  |  |
| CC[C@H](C)[C@H](NC(=O)[C@H](CC(C)C)NC(=O)[C@H](CCCCN)NC(=O)[C@@H]1CSCc2cccc(c2)CSC[C@H](N)C(=O)N[C@@H]([C@@H](C)O)C(=O)N[C@@H](CC(C)C)C(=O)N[C@@H](CCCCN)C(=O)N1)C(N)=O [MP1, CTLKCKLI] (H-CTLKCKLI-NH2; linker 1-5 via mXylylene; N-terminus assumed) |  |  |  | significantly interfered |  |  |  |  | did not demonstrated any binding | did not demonstrated any binding | no effect up to 500 μM | no effect up to 500 μM |
| Ac-LIAPVAE-NH2 [LBc, LB19 central fragment evaluated as a negative control, reference compound] | − (non-binders) |  | no effect | no effect | not to demonstrate any appreciable saturation transfer |  |  |  |  |  |  |  |
